The target in experiment [1] is T1, PTPN11-E76K mutant enzyme (Homo sapiens, UniProt Q06124, E76K).
T1 sequence (Q06124 1-593 E76K): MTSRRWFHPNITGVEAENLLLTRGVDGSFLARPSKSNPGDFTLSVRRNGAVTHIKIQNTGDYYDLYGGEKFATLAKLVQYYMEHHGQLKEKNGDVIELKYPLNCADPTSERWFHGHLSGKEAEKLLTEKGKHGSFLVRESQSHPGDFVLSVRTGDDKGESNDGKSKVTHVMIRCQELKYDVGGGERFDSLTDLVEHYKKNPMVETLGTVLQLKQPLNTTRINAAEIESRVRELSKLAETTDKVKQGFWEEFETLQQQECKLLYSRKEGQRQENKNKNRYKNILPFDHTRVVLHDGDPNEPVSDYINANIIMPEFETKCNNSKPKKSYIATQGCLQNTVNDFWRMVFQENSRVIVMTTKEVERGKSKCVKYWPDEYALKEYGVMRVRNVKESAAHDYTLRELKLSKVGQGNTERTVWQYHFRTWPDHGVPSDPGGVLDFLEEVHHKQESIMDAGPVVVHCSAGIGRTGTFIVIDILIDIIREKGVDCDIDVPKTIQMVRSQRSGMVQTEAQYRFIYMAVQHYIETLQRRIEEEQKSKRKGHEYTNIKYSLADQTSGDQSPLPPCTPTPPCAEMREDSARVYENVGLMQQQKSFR
The following applies: e.g. PTPN11-E76K mutant enzyme; stated as 'in certain embodiments'; read-out: IC50 for inhibition of PTPN11; cited from earlier work.

In experiment [2] the test system is NCI-H1975 (C797S+) tumors. Briefly: NCI-H1975 (C797S+) tumor model, tumor volume. It is filed as in vivo, mouse.
In experiment [3] the test system is HCC4006 cells. Briefly: In vitro 3-day proliferation assay (CellTiter-Glo 2.0), HCC4006. It is filed as cell-based. The conditions noted are these: Homo sapiens, 72 h, HCC4006 parental cells. How it is done: (§1) Cell lines. The HCC4006 cell line was purchased from ATCC. […] The cells were cultured in RPMI-1640 containing 4 mM glutamax (Thermo Fisher #72400-120)+10% fetal bovine serum (FBS, Sigma #F2442) in 37° C. tissue culture incubator with 5% CO2 (NUAIRE, NU-5510).
(§2) In vitro 3-day proliferation assay. HCC4006 or HCC4006-OsiR cells were plated in 96-well plates (Corning #3603) at 1,500 cells per well in 100 μL of media (RPMI-1640+10% FBS) and allowed to attach overnight. […] Final DMSO concentration was 0.1%. After 3 days of treatment, viable cell numbers were determined using CellTiter-Glo 2.0 cell viability assay (Promega #G9241).
(§3) CellTiter-Glo 2.0 cell viability assay. CellTiter-Glo 2.0 cell viability assay (Promega #G9241) was used to determine the relative viable cell number, following manufacturer's protocols. Briefly, 100 μL CellTiter-Glo reagent was added to each well in the 96-well plate. The plate was put on a VWR advanced 3500 orbital shaker (VWR #89032-096) at 100 rpm shaking for 5 min at room temperature, then incubated at room temperature for 15 min, protected from the light. Afterwards, luminescence was quantified using a PheraStar plate reader (BMG Labtech). The luminescence readings were normalized to the average of DMSO treated samples of each cell line, using Microsoft Excel. Data were plotted in GraphPad Prism 8.0. Non-linear fit was used to generate the dose response curve. […]

Experiment [4] relates to HCC4006 cells. Briefly: In vitro clonogenic assay (crystal violet, Bliss score), HCC4006. Format: cell-based. The conditions noted are these: Homo sapiens, 336 h; HCC4006, 14-day clonogenic assay. How it is done:
(§4) In vitro clonogenic assay. […] Compounds were prediluted in media at 4x the final concentration, and the final DMSO concentration was 0.2% in 1 mL of media per 24-well. After 12˜14 days of treatment, the plates were stained with crystal violet solution.
(§5) Crystal violet staining, quantification and Bliss score calculation. The 0.1% crystal violet staining solution was prepared by mixing 100 mL of 1% crystal violet solution (Sigma #V5265), 100 mL of 100% ethanol and 800 mL of ddH2O. […] After removal of DPBS, 0.5 mL of 0.1% crystal violet staining solution was added to each 24-well. The plates were incubated at room temperature for 30 min. The staining solution was removed from wells and discarded. Each well was then washed with 1 mL of ddH2O. Afterwards, the plates were dipped in a large bucket filled with tap water 2˜4 times until the supernatant became colorless. […]
(§6) The OD590 readings (multiplied by the dilution factor) were normalized to the average of DMSO treated samples, using Microsoft Excel. The Bliss expectation was calculated with the equation (A+B)−A×B/100, where A and B were the percentage growth inhibition induced by agents A and B at a given dose. Bliss score is the difference between the detected growth inhibition (%) caused by the combination of the two agents and the bliss expectation. […]

In experiment [5] the test system is HCC4006-OsiR cells. As to the kind of experiment: In vitro clonogenic assay (crystal violet, Bliss score), HCC4006-OsiR. The conditions noted are these: 14-day clonogenic assay. Format: cell-based, human. How it is done:
as §4, §5, §6

Experiment [6] concerns HCC4006-OsiR cells. Briefly: In vitro 3-day proliferation assay (CellTiter-Glo 2.0), HCC4006-OsiR. It is filed as cell-based, human. How it is done:
as §1, §2, §3

This is an account of results in US20250195520A1, “COMBINATION THERAPY USING A PTPN11 INHIBITOR AND AN EGFR INHIBITOR” (NAVIRE PHARMA, INC., priority 2021, published 2025).

Entries after “also recorded” stand apart in the source; their conditions may differ.

With `Cc1c(N2CCC3(CC2)CO[C@@H](C)[C@H]3N)nc(C)n(-c2cccc(Cl)c2Cl)c1=O` (atropisomer, axis not shown; (Ra)) [Formula (10b), 6-((3S,4S)-4-amino-3-methyl-2-oxa-8-azaspiro[4.5]decan-8-yl)-3-(Ra)-(2,3-dichlorophenyl)-2,5-dimethylpyrimidin-4 (3H)-one], the concentration for half-maximal inhibition (IC50) in experiment [1] is not above 0.05 µM. The “tumor growth (tumor volume)” value in experiment [2] was “suppresses the growth; also recorded: robust tumor regression”.

As to `C=CC(=O)Nc1cc(Nc2nccc(-c3cn(C)c4ccccc34)n2)c(OC)cc1N(C)CCN(C)C` [Osimertinib], the half-maximal inhibitory concentration (IC50) is 0.027 ± 0.0079 µM with HCC4006 cells [3]; 0.0122 ± 0.0025 µM in the experiment with HCC4006 cells [4]; 0.257 ± 0.241 µM in the experiment on HCC4006-OsiR cells [5] (Homo sapiens, 336 h, HCC4006-OsiR); more than 1 µM in the experiment on HCC4006-OsiR cells [6] (Homo sapiens, 72 h, HCC4006-OsiR cells, 3-day proliferation assay). In addition, in the experiment on HCC4006-OsiR cells [5], the “shift in IC50, HCC4006-OsiR compared with HCC4006 parental cells” value was 20 fold. In addition, in the experiment on HCC4006-OsiR cells [6] (1,000 nM (the highest concentration tested), HCC4006-OsiR, 3-day), the anti-proliferative effect entry is recorded as “no anti-proliferative effect”.
